The results in this text go back to patent publication US20110288176A1, “[…] ACID-CONTAINING COMPOSITION FOR PREVENTION OR TREATMENT OF […]-RELATED DISEASES AND METHOD FOR PREVENTION OR TREATMENT OF […]-RELATED DISEASES USING THE SAME” (priority 2008, published 2011).

The assay deals with T1, Transglutaminase 2 (Cavia cutleri, UniProt P08587).
T1 construct: purchased Sigma-Aldrich T5398
T1 sequence (P08587 1-690): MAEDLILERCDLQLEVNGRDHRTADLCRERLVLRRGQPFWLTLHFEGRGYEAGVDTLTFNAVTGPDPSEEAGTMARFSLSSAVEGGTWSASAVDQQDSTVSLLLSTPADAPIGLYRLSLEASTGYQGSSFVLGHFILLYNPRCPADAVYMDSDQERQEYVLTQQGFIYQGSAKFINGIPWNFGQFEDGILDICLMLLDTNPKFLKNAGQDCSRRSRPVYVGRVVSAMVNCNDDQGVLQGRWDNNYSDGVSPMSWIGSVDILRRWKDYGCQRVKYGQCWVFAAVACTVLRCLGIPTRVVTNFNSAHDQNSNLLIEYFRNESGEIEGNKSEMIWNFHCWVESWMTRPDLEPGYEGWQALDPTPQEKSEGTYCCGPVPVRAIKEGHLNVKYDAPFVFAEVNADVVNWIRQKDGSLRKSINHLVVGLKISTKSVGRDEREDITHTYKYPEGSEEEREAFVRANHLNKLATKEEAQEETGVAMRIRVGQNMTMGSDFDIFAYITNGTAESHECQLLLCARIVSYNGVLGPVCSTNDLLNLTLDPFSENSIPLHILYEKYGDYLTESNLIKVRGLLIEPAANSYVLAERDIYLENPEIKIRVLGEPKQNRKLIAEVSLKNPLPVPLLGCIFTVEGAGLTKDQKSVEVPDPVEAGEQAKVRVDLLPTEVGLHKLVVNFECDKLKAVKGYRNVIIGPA
As to the kind of experiment: In vitro assay for inhibition of transglutaminase activity ([1,4-14C]putrescine incorporation into succinylated casein). The class given is biochemical. Conditions: for activity of transglutaminase, Mean: mean of three assays. How it is done:
Succinylated casein was purchased from Calbiochem (Cat. No. 573464), and 1 g of the powder was dissolved in 50 ml of a reaction buffer solution containing 5 mM DTT (0.1 M Tris-acetate (pH 8.0), 10 mM CaCl2, 0.15 M NaCl, 1.0 mM EDTA). This solution was stored in a deep freezer for further use. [1,4-^14C] Putrescine dihydrochloride was purchased from GE Healthcare (Cat. No. CFA301), and the stock solution was diluted with distilled water to yield a radiological dose of 5 μCi/ml. Transglutaminase 2 was purchased from Sigma-Aldrich (Cat. No. T5398), and diluted with distilled water to yield a final concentration of 1 unit/ml.
450 μl of succinylated casein solution and 50 μl of [1,4-^14C] putrescine dihydrochloride solution were mixed together to prepare a substrate solution. […] 500 μl of the substrate solution β and 100 μl of sample solution were mixed well, and the mixture was incubated at 37° C. for 2 hrs, before termination with 4.5 ml of cold (4° C.) 7.5% TCA. The final solution was stored at 4° C. for 1 hr. The TCA-protein precipitates were filtered through a GF/glass fiber filter, washed with 25 ml of cold 5% TCA, and dried.

Setting [1] is: 5 μM ethacrynic acid, relative to DMSO control (=1.0000).
Setting [2] is: 10 μM ethacrynic acid, relative to DMSO control (=1.0000).
Setting [3] is: 25 μM ethacrynic acid, relative to DMSO control (=1.0000).
Setting [4] is: 50 μM ethacrynic acid, relative to DMSO control (=1.0000).

For the compound `C=C(CC)C(=O)c1ccc(OCC(=O)O)c(Cl)c1Cl` [ethacrynic acid, 2-[2,3-dichloro-4-(2-methylidenebuanoyl)phenoxy]acetic acid], the “activity of transglutaminase, Mean” value by setting is: under setting [1], 0.4796; under setting [2], 0.3752; under setting [3], 0.1935; under setting [4], 0.0736. The “activity of transglutaminase, Assay 1” value (5 μM ethacrynic acid, radioactivity of cross-linked protein relative to DMSO control (=1.0000)) is listed as 0.5667; the “activity of transglutaminase, Assay 1” value under setting [2] stood at 0.4319; the “activity of transglutaminase, Assay 1” value under setting [3] is recorded as 0.2337; the “activity of transglutaminase, Assay 1” value under setting [4] is on record as 0.0763. The “activity of transglutaminase, Assay 2” value came to 0.4572 under setting [1], 0.3654 under setting [2], 0.1812 under setting [3] and 0.0799 under setting [4]. Further, the “activity of transglutaminase, Assay 3” value by setting is: under setting [1], 0.4148; under setting [2], 0.3281; under setting [3], 0.1656; under setting [4], 0.0645. The “inhibition of transglutaminase activity (in words)” value (FIG. 1) is “inhibited in an ethacrynic acid concentration-dependent manner”.
